The values that follow come from US5023265A, “Substituted 1-H-pyrrolopyridine-3-carboxamides” (Schering Corporation, priority 1990, dated 1991).

Test [1] concerns Reversed Passive Arthus Reaction (RPAR) in the rat paw. In words: RPAR-Paw Assay (Reversed Passive Arthus Reaction, rat paw). Conditions: oral, paw volume 2 hours postchallenge, read-out: RPAR-Paw % Inhib. Type of test: in vivo, male Wistar/Lewis inbred albino rats. The protocol: In order to determine the antiinflammatory activity by the reverse passive Arthus response, male Wistar/Lewis inbred albino rats weighing 180-200 g were used. The rats were housed three animals per cage and fasted 24 hours prior to and during the study. Water was allowed ad libitum.
All reagents and drugs were prepared prior to the study. Crystallized and lyophilized bovine serum albumin (BSA) was solubilized in cold, sterile, pyrogen-free saline (PFS), 10 mg/mL. Lyophylized antibovine serum albumin (anti-BSA), the IgG fraction, was suspended or solubilized in an aqueous solution of methylcellulose (MC) with a homogenizer prior to administration.
One hour prior to sensitization with BSA, groups of animals (minimum six per group) were given drug in MC by gavage according to body weight (1.0 mL/100 g). Controls were given MC alone, and a drug standard, indomethacin, was usually included in each assay. Drugs were prepared so as to provide a dose for a 200 g animal, which was equivalent to the milligram per kilogram dose for the experiment. Each rat received an oral dose in a volume of approximately 2.0 mL. One hour after dosing, the animals were lightly anesthetized with ether and "sensitized" by injection into the penile vein with 0.2 mL of PFS containing 1 mg of BSA. One hour later, the animals were "challenged" in the right hind paw with subplantar injections of 0.2 mL PFS pyrogen-free salin containing 0.1 mg of anti-BSA bovine serum albumin. Immediately after the subplantar injections, the right hand paw was immersed (to the lateral maleolus) into the mercury well of a plethysmograph. The volume of mercury displaced was converted to weight and recorded. This value was considered to be the control reading for the animal. Paw volumes were also recorded with a plethysmograph during the development of the inflammation at 2 hours postchallenge.
Results were expressed by the change in paw volume from the control reading for each animal to that recorded 2 hours postchallenge. All drug-treated groups were compared to the MC control for significant differences by using analysis of variance (Duncan and Dunnetts). Differences from control in drug-treated groups were expressed as percent inhibition.
In order to determine the dose required to inhibit the inflammatory response by 50% (ED50), a minimum of three and a maximum of five points were included in the assay. The ED50 and the relative potency to a drug standard, indomethacin, were determined by linear regression analysis. (J. Med. Chem., 1984, Vol. 27, No. 1, 27). Results for representative compounds of the invention are shown in Columns 3 and 4 of Table 1 below.

The test system of test [2] is Reversed Passive Arthus Reaction (RPAR) in the rat pleural cavity. In words: RPAR-Pleural Cavity Assay. Format: in vivo, male rats. Conditions: for inhibition in vivo at 25 mg/kg / inhibition in vivo at 50 mg/kg: Rattus norvegicus, 4 hours. The procedure: RPAR-Pleural Cavity Assay
Groups of 4 male rats were injected in the penile vein with antigen (1 mg BSA in 0.2 mL of saline per rat) and 0.5 hour later injected in the pleural cavity with antibody (1.0 mg antibody protein in the IgG fraction of rabbit anti-BSA in 0.2 mL). […] After 4 hours the animals were killed with CO2, and the pleural cavities were opened and the exudate drained into a graduated conical glass centrifuge tube containing indomethacin (1.8 μg) and nordihydroguaiaretic acid (NDGA) (15 μg) to block ex vivo metabolite synthesis. The volume of the exudate was measured. The cavity was then washed out with saline-EDTA to achieve a final volume of 5.0 mL. The number of cells were determined in a Coulter Counter. The cells were spun-down (1000×g) and the exudate supernatant was added to 4 volumes of 95% ethanol and samples were kept on ice for 30 minutes. After removal of the protein precipitate (2,500×g) the ethanol extract of the exudate was dried under N2 and then stored at -20° C. For radioimmunoassay (RIA) analysis the samples were redissolved in water to a volume of 1 mL per rat. Utilizing internally spiked samples, recovery of TXB2 (tritiated thromboxane B2) and LTE4 (tritiated leukotriene-E4) from exudates was determined to be 84±2% (SEM) and 89±2% (N=4), respectively. Exudate samples were directly assayed in duplicate with the commercial ^3 H-TXB2 RIA kit from New England Nuclear and the ^3 H-LTC4 /D4 /E4 kit from Amersham. The assay was validated using reversed-phase HPLC analysis of LTs in the standard procedure described by M. W. Musch, R. W. Bryant, C. Coscollaela, R. F. Myers and M. I. Siegel, Prostaglandins, Vol. 29, pp 405-430 (1985). Samples of ethanol exudate extract were "spiked" with ^3 H-LTs to follow HPLC purification and recovery.

For the next test, the system named is cyclooxygenase. In words: Rat CO/LO Inhibition: cyclooxygenase metabolite HHT in rat pleural neutrophils. Format: cell-based, male Wistar-Lewis rats. The settings on record: 5 M × 10^-5, rat neutrophils. The protocol:
Male Wistar-Lewis rats were injected iv with 5 mg of BSA in 0.2 mL of pyrogen-free saline followed by an intrapleural injection of 500 μg of the IgG fraction of rabbit anti-BSA in 0.2 mL of pyrogen-free saline, all under light anesthesia. After 4 hours the pleural cavity exudate, consisting of 85-95% neutrophils, was removed. Neutrophils were isolated from the pleural exudates by centrifugation at 4° C. for 10 minutes at 200 g. The cell pellet was briefly resuspended in 17 mM Tris-HCl buffer, pH 7.2, containing 0.75% NH4 Cl in order to lyse red cells, followed by centrifugation at 4° C. for 5 minutes at 200 g. The pelleted neutrophils were rewashed in 50 mM Tris-HCl, pH 7.4, containing 100 mM NaCl and 1 mM CaCl2, for a final cell count of approximately 5×10^6 intact neutrophils/0.1 mL of suspension.
Arachidonic acid metabolism via cyclooxygenase and 5-lipoxygenase was determined by preincubating the above cell suspension with the test compound for 4 minutes at room temperature and then adding 0.1 mL of the preincubated cells to assay tubes. The final assay mixture (0.1 mL) contained 40 μM [1-^14 C]arachidonic acid, 10 μM calcium A23187 ionophore and 0.1% BRIJ®56 detergent. After 1 minutes at 37° C., assays were terminated by the addition of 2.4 mL of a CHCl3 /CH3 OH (1:1 v/v) mixture and 0.9 mL of 0.1% HCOOH. The suspension was vortexed, immediately cooled on ice, and centrifuged and the organic layer withdrawn. The extract was evaporated and resuspended in 0.1 mL of CHCl3 /CH3 OH (1:2, v/v) for spotting on silica gel TLC plates (without gypsum). Development was with petroleum ether/diethylether/acetic acid (40:60:1, v/v/v). Products were located by autoradiography and the appropriate regions scraped and counted in a liquid scintillation counter. The 5-lipoxygenase metabolite 5-hydroxy-6,8,11,14-eicosatetraenoic acid (5-HETE) and the cyclooxygenase metabolite 12-hydroxy-[…] (HHT) were identified by cochromatography with authentic standards on TLC plates. Results are reported as percent inhibition of cyclooxygenase and lipoxygenase metabolite formation. (Myers, R. F.; Siegel, M. I., Biochem. Biophys. Res. Commun., 1983, 112, 586.) Results with representative compounds of the invention are shown in Columns 10, 11 and 12 of Table 1 below.

The test system of test [3] is Adjuvant-Induced Arthritis in Rats. Briefly: Adjuvant-Induced Arthritis in Rats (AAR). Format: in vivo. The settings on record: Rattus norvegicus, 504 h; dosed 1 hour prior to adjuvant, then 21 consecutive days.
[4] abbreviates: read-out: RPAR-Pleural Cavity % Inhibition Cells.
The mark [5] stands for this setting: exudate volume, read-out: RPAR-Pleural Cavity % Inhibition Fluid.
[6] abbreviates: 50 mg/kg, read-out: RPAR-Pleural Cavity % Inhibition Cells.
The mark [7] stands for this setting: 50 mg/kg, exudate volume, read-out: RPAR-Pleural Cavity % Inhibition Fluid.

Like-named read-outs stand apart in the source and are kept apart here.

A word on the ED50: it is the midpoint of the dose-response relation. Turning to `O=C(Nc1ccccc1)c1c(O)n(-c2ccccc2)c2ncccc12`, the inhibition in vivo at 25 mg/kg in test [1] is 60%; in test [2] (setting [4]), 56%; in test [2] (setting [5]) it was 49%. For the same compound, the “RPAR-Pleural Cavity % Inhibition LTE4” value in test [2] (50 mg/kg, LTE4 in exudate by RIA) stood at 59%. Besides, in test [2] (50 mg/kg, TXB2 in exudate by RIA), the “RPAR-Pleural Cavity % Inhibition TXB2” value is listed as 100%. Moreover, the inhibition in vivo at 50 mg/kg in test [2] (setting [6]) is 61%; in test [2] (setting [7]) it was 27%. Also, the “Cyclooxygenese/lipoxygenese % Inhib. HHT” value in the test on cyclooxygenase is 93%. The ED50 in test [3] was determined as 9 mg/kg.

Turning to `O=C(Nc1ccccc1)c1c(O)n(-c2cccc(C(F)(F)F)c2)c2ncccc12`, the inhibition in vivo at 50 mg/kg in test [1] worked out at 60%. Also, the inhibition in vivo at 25 mg/kg in test [2] (setting [4]) and in test [2] (setting [5]) was 0% in each case. Also, the “Cyclooxygenese/lipoxygenese % Inhib. HHT” value with cyclooxygenase came out at 56%.

Take `CC(C)(C)n1c(O)c(C(=O)Nc2ccccc2)c2cccnc21`: the figures for the inhibition in vivo at 25 mg/kg in test [1], in test [2] (setting [4]) and in test [2] (setting [5]) were 36%, 41% and 26%, respectively.

With `O=C(Nc1ccccn1)c1c(O)n(-c2ccccc2)c2ncccc12`, in test [1], the inhibition in vivo at 50 mg/kg is 26%. Besides, the “Cyclooxygenese/lipoxygenese % Inhib. HHT” value with cyclooxygenase is given as 78%.

As for `O=C(Nc1ccccc1)c1c(O)n(-c2ccc(Cl)cc2)c2ncccc12`, the inhibition in vivo at 50 mg/kg in test [1] was 56%. For the same compound, the inhibition in vivo at 25 mg/kg in test [2] (setting [4]) was 51%; in test [2] (setting [5]) it was 18%. In addition, in the test with cyclooxygenase, the “Cyclooxygenese/lipoxygenese % Inhib. HHT” value was determined as 96%.

As for `O=C(Nc1cccc(C(F)(F)F)c1)c1c(O)n(-c2ccccc2)c2ncccc12`, the inhibition in vivo at 25 mg/kg in test [1] worked out at 41%; in test [2] (setting [4]) it was 22%; in test [2] (setting [5]) it was 0%. For the same compound, in the test on cyclooxygenase, the “Cyclooxygenese/lipoxygenese % Inhib. HHT” value is 60%.

Regarding `O=C(Nc1ccc(F)cc1F)c1c(O)n(-c2ccccc2)c2ncccc12`, in test [1], the inhibition in vivo at 50 mg/kg was 33%. Moreover, in the test on cyclooxygenase, the “Cyclooxygenese/lipoxygenese % Inhib. HHT” value is listed as 96%.

With `O=C(Nc1ccccc1)c1c(O)n(Cc2ccccc2)c2ncccc12`, the inhibition in vivo at 25 mg/kg in test [1] is 42%; in test [2] (setting [4]) it was 36%; in test [2] (setting [5]), 76%. Also, the “Cyclooxygenese/lipoxygenese % Inhib. HHT” value with cyclooxygenase was found to be 34%. The ED50 in test [3] is 33 mg/kg.

Regarding `Cc1cc(NC(=O)c2c(O)n(-c3ccccc3)c3ncccc23)no1`, the inhibition in vivo at 25 mg/kg came out at 10% in test [1], 0% in test [2] (setting [4]) and 0% in test [2] (setting [5]). The “Cyclooxygenese/lipoxygenese % Inhib. HHT” value in the test with cyclooxygenase is recorded as 45%.

For `O=C(Nc1ccccc1)c1c(O)[nH]c2ncccc12`, the inhibition in vivo at 25 mg/kg in test [1] was determined as 22%. In the test with cyclooxygenase, the “Cyclooxygenese/lipoxygenese % Inhib. HHT” value was found to be 0%.

Consider `COc1ccc(NC(=O)c2c(O)n(-c3ccccc3)c3ncccc23)cc1`, for which the results for the inhibition in vivo at 25 mg/kg in test [1], in test [2] (setting [4]) and in test [2] (setting [5]) were 42%, 28% and 27%, respectively.

For `CCCCNC(=O)c1c(O)n(-c2ccccc2)c2ncccc12`, the inhibition in vivo at 25 mg/kg in test [1] turned out to be 29%; in test [2] (setting [4]) it was 19%; in test [2] (setting [5]) it was 0%. Further, in the test with cyclooxygenase, the “Cyclooxygenese/lipoxygenese % Inhib. HHT” value was 44%.

Regarding `O=C(NCc1ccccc1)c1c(O)n(-c2ccccc2)c2ncccc12`, the inhibition in vivo at 25 mg/kg in test [1], in test [2] (setting [4]) and in test [2] (setting [5]) was 0% each time. In addition, the “Cyclooxygenese/lipoxygenese % Inhib. HHT” value in the test with cyclooxygenase worked out at 34%.

Turning to `O=C(Nc1ccccc1)c1c(O)n(Cc2ccc(F)cc2)c2ncccc12`, the inhibition in vivo at 25 mg/kg in test [1] stood at 32%; in test [2] (setting [4]) it was 30%; in test [2] (setting [5]), 46%. The “Cyclooxygenese/lipoxygenese % Inhib. HHT” value in the test on cyclooxygenase is given as 57%.

`CC(C)n1c(O)c(C(=O)Nc2ccccc2)c2cccnc21`: the inhibition in vivo at 25 mg/kg turned out to be 34% in test [2] (setting [4]) and 44% in test [2] (setting [5]). Besides, the figures for the inhibition in vivo at 50 mg/kg in test [2] (setting [6]) and in test [2] (setting [7]) were 65% and 57%, respectively.

For `O=C(O)c1cc(NC(=O)c2c(O)n(-c3ccccc3)c3ncccc23)ccc1O`, the figures for the inhibition in vivo at 25 mg/kg in test [1], in test [2] (setting [4]) and in test [2] (setting [5]) were 4%, 0% and 0%, respectively.

As for `CC(C)(C)NC(=O)c1c(O)n(-c2ccccc2)c2ncccc12`, the inhibition in vivo at 25 mg/kg was found to be 49% in test [1], 66% in test [2] (setting [4]) and 23% in test [2] (setting [5]).

With `CC(C)c1ccc(-n2c(O)c(C(=O)Nc3ccccc3)c3cccnc32)cc1`, the inhibition in vivo at 25 mg/kg turned out to be 34% in test [1], 9% in test [2] (setting [4]) and 8% in test [2] (setting [5]).

On to `Cn1c(O)c(C(=O)Nc2ccccc2)c2cccnc21`, for which the inhibition in vivo at 25 mg/kg was 45% in test [2] (setting [4]) and 5% in test [2] (setting [5]). Moreover, the “Cyclooxygenese/lipoxygenese % Inhib. HHT” value in the test on cyclooxygenase worked out at 0%.
